Source: article PMC3234165 (Biochemistry, 2011)

Tests used:
[1] = target: H2 (histamine receptor type 2) (Homo sapiens, UniProt P25021); assay: NIMH PDSP secondary binding assay
[2] = target: M3 (muscarinic acetylcholine receptor type 3) (Homo sapiens, UniProt P20309); assay: NIMH PDSP secondary binding assay
[3] = target: T1, 5HT1A (serotonin receptor subtype 1A) (Homo sapiens, UniProt P08908); assay: NIMH PDSP secondary binding assay; details: KI 5HT1A, NIMH PDSP; [3H]8-OH-DPAT/0.5 nM
T1 sequence (P08908 1-422): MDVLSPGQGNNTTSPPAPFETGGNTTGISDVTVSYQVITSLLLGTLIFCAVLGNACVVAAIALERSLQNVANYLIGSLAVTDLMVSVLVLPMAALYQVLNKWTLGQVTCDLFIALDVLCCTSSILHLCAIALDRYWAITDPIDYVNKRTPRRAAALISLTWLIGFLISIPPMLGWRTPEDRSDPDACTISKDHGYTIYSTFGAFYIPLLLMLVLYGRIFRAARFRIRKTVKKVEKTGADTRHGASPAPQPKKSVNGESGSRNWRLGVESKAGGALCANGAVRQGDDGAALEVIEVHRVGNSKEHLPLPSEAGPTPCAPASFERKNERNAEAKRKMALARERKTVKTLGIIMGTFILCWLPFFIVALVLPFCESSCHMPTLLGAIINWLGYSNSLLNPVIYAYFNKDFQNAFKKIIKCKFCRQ

Sig-2R, sigma-2 receptor = target: T2, Sig-2R, sigma-2 receptor (Rattus norvegicus, UniProt Q5U3Y7); assay: NIMH PDSP secondary binding assay
T2 sequence (Q5U3Y7 1-176): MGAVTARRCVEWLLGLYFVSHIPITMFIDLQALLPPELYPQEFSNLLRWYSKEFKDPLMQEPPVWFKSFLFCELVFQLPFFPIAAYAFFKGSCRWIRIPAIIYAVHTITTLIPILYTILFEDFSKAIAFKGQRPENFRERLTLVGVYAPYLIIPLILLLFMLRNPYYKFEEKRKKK

[4] = target: H3 (histamine receptor type 3) (Homo sapiens, UniProt Q9Y5N1); assay: NIMH PDSP secondary binding assay
[5] = target: M2 (muscarinic acetylcholine receptor type 2) (Homo sapiens, UniProt P08172); assay: NIMH PDSP secondary binding assay
H1299 = assay: Multiplex cytotoxicity assay; format: cell-based; details: Homo sapiens, NCI-H1299, read-out: IC50 H1299
A549 = assay: Multiplex cytotoxicity assay; format: cell-based; details: Homo sapiens, A549, read-out: IC50 A549
Kv1.4 potassium channel = Kv1.4 potassium channel (Rattus norvegicus, UniProt P15385+Q9R0C9); assay: Whole cell patch clamp, HEK-293 cells co-expressing Kv1.4 and sigma-1 receptor; format: cell-based
[6] = target: pure guinea pig sigma-1 receptor (Cavia porcellus, UniProt Q60492); assay: Competitive displacement of [3H]-; format: binding
[7] = target: M4 (muscarinic acetylcholine receptor type 4) (Homo sapiens, UniProt P08173); assay: NIMH PDSP secondary binding assay
[8] = target: D4 (dopamine receptor type 4) (Homo sapiens, UniProt P21917); assay: NIMH PDSP secondary binding assay
[9] = target: sigma-1 receptor (sigma-1 sites) (Cavia porcellus, UniProt Q60492); assay: Competitive displacement of [3H]-; format: binding, guinea pig
sigma-1 receptor (sigma-1 sites), sequence (Q60492 whole entry): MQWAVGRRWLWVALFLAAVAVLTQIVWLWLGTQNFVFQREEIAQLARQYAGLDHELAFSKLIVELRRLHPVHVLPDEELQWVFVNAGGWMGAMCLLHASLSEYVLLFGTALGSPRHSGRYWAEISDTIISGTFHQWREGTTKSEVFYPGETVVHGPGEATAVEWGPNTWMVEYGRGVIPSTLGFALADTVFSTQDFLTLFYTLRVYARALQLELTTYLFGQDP

H3 (histamine receptor type 3), sequence (Q9Y5N1 whole entry): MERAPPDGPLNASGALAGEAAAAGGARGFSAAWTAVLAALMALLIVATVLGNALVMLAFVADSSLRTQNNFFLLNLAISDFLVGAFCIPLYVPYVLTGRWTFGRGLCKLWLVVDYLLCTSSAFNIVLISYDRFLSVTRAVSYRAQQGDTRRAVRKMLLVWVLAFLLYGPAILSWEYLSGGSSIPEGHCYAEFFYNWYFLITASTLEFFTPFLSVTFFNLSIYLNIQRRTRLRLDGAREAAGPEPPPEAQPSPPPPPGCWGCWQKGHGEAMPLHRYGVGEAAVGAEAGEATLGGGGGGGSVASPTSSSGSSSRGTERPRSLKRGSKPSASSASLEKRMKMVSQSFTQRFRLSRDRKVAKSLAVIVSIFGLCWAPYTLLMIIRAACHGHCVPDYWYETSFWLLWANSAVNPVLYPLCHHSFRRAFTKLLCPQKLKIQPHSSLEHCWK
M3 (muscarinic acetylcholine receptor type 3), sequence (P20309 whole entry): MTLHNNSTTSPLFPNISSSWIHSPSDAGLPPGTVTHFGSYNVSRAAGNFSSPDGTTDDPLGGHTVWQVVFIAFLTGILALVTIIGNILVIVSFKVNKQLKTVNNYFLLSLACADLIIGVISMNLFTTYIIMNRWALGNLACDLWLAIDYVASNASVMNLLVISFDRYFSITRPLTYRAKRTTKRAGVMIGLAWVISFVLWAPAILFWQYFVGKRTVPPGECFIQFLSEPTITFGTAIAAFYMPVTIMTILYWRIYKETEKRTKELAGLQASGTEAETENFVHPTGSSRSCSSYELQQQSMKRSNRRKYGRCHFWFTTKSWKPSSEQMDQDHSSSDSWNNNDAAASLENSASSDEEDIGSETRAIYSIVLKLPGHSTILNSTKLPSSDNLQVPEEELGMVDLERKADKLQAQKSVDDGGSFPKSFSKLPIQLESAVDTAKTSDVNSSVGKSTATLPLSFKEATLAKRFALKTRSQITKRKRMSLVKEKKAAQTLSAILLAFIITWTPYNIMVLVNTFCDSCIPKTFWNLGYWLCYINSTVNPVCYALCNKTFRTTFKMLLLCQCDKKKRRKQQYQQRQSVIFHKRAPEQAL
M4 (muscarinic acetylcholine receptor type 4), sequence (P08173 whole entry): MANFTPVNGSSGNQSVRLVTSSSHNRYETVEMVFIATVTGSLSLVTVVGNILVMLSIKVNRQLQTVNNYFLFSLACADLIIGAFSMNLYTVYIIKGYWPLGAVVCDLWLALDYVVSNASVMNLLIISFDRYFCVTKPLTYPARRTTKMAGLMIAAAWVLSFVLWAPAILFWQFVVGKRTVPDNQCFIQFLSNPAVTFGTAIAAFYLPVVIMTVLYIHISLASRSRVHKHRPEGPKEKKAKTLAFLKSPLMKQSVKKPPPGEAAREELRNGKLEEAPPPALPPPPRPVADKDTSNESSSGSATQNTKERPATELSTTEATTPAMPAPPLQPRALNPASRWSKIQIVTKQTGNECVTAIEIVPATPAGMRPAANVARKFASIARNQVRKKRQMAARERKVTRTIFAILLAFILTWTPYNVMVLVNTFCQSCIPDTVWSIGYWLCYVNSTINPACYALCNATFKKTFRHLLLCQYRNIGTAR
M2 (muscarinic acetylcholine receptor type 2), sequence (P08172 whole entry): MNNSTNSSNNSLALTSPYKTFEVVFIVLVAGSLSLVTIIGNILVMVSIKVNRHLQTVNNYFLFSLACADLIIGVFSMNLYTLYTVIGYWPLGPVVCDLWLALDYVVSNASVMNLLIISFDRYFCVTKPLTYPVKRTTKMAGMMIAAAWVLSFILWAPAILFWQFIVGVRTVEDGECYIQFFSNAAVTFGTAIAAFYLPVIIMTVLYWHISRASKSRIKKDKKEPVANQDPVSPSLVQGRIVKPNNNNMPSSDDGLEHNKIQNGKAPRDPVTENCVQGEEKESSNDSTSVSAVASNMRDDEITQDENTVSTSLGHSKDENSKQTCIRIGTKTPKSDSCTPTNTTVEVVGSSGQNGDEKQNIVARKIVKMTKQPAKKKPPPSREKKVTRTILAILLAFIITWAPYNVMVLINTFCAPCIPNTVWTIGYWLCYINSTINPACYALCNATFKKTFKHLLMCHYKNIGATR
H2 (histamine receptor type 2), sequence (P25021 whole entry): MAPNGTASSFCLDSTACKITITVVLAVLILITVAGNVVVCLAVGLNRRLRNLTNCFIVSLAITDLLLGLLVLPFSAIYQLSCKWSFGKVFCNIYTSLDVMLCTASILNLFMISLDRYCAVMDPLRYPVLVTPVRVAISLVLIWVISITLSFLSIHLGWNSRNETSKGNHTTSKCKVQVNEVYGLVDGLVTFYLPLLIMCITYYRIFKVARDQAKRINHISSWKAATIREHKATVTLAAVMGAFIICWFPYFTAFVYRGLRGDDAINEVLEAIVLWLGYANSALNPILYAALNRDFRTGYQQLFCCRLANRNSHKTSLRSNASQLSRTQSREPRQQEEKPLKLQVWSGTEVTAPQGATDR
Kv1.4 potassium channel, sequence (P15385 whole entry): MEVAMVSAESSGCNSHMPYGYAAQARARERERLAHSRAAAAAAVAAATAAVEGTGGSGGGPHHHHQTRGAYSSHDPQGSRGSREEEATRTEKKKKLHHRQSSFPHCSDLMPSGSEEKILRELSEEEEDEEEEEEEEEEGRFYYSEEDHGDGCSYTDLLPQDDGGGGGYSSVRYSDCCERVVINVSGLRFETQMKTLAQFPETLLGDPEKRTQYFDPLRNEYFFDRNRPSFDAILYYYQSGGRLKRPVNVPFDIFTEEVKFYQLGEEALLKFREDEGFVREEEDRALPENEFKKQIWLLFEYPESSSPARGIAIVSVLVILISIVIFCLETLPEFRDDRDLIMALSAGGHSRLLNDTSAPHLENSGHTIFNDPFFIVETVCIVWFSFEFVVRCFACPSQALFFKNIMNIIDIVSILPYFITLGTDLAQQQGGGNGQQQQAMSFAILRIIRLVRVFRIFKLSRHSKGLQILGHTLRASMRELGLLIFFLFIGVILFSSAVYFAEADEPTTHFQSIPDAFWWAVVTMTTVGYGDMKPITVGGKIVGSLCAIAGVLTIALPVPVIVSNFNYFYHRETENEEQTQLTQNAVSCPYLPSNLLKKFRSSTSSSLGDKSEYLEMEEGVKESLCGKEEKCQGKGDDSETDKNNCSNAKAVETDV
Kv1.4 potassium channel, sequence (Q9R0C9 whole entry): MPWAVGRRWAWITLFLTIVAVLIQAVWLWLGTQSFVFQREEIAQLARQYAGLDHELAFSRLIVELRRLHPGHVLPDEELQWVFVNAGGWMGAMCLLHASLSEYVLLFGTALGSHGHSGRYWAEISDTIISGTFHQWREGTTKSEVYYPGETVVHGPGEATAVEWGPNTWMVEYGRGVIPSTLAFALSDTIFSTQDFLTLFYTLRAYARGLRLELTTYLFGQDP
pure guinea pig sigma-1 receptor, sequence (Q60492 whole entry): as the sequence (Q60492 whole entry) above
D4 (dopamine receptor type 4), sequence (P21917 whole entry): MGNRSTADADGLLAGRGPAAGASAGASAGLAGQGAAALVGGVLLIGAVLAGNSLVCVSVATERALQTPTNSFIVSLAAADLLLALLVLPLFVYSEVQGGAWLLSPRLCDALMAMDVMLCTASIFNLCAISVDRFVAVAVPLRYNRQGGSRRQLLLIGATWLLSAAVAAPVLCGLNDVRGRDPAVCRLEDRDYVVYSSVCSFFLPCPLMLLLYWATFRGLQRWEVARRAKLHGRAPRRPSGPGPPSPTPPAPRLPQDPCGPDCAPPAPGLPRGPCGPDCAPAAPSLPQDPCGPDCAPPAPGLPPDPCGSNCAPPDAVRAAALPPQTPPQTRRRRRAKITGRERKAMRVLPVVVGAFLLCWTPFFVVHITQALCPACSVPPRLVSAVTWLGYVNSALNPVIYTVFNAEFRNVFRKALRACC

## CCCCCCCNCCCc1ccccc1 [2a, N-(3-Phenylpropyl)heptan-1-amine]
[1]
  Ki: > 10 µM
[2]
  Ki: > 10 µM
[3]
  Ki: 0.13 µM
Sig-2R, sigma-2 receptor
  Ki: 0.25 µM
[4]
  Ki: > 10 µM
[5]
  Ki: > 10 µM
H1299
  IC50: 39 ± 6 µM
A549
  IC50: 83 ± 11 µM
Kv1.4 potassium channel
  IC50: 10 µM
[6]
  Ki: 0.018 ± 0.014 µM
[7]
  Ki: > 10 µM

## CCCCCCCCCCCCNCCCc1ccccc1 [3a, N-(3-Phenylpropyl)dodecan-1-amine]
[1]
  Ki: > 10 µM
[2]
  Ki: > 10 µM
[8]
  Ki: > 10 µM
[3]
  Ki: > 10 µM
Sig-2R, sigma-2 receptor
  Ki: 3.6 µM
[4]
  Ki: > 10 µM
[5]
  Ki: > 10 µM
H1299
  IC50: 39 ± 0.1 µM
A549
  IC50: 87 ± 70 µM
[7]
  Ki: > 10 µM

## CCCCCCCCCCCCNCCCc1ccc([N+](=O)[O-])cc1 [3b, N-(3-(4-Nitrophenyl)propyl)dodecan-1-amine]
[3]
  Ki: 0.04 µM
Sig-2R, sigma-2 receptor
  Ki: 0.27 µM
[4]
  Ki: > 10 µM
H1299
  IC50: 13 ± 1 µM
A549
  IC50: 29 ± 1 µM
[9]
  Ki: 5.1 ± 0.2 µM
